Assays:
MIHA = assay: Mammalian cell cytotoxicity assay (MTT), MIHA; type: cell-based; settings: at 16 folded MIC (50 μM compound 8, 12.5 μM compound 35)
Experimental: FIGS. 2A-2B are the bar graphs showing the cytotoxicity of compound 8 (FIG. 2A) and compound 35 (FIG. 2B) towards mammalian cell NIH3T3, MDCK and MIHA. % survival is mean±S.D normalized to DMSO as the negative control of a representative experiment. Biological triplicates were conducted.
In the treated culture dish, cells were washed by PBS and then trypsinized. DMEM was added to quench the reaction. Cells were centrifuged and resuspended into fresh DMEM. Cells were then seeded in 96-well microtitre plate (100 μL, 5000 cells per well) for 24 hours before addition of compounds. The compounds were two-fold serial diluted by DMSO in a DMSO-compatible 96-well plate. 1 μL of compound in DMSO is transferred into the 96-well microtitre preparation plate containing 100 μL DMEM medium. The medium in culture plate was removed and compounds in preparation plate were transferred to culture plate. Equal volume of DMSO was used as negative control.
After 24 hours of incubation of cells, cell viability was measured by MTT assay. In MTT assay, 20 μL 5 mg/mL MTT solution in PBS was added to cell medium and cultured for 3 hours. The medium was then removed and 50 μL DMSO was added and cultured for 10 minutes. Absorbance at 595 nm was measured spectrophotometrically (Beckman Coulter DTX 880 Multimode Detector) and normalized to DMSO group. Biological replicates were performed.

[1] = test system: MRSA Mu3 cell membrane potential; assay: Membrane potential monitored by DiSC3(5); type: cell-based, Staphylococcus aureus
Experimental: FIG. 11 is a line graph showing compound 8 can depolarize Staphylococcus aureus cell membrane under sub-inhibitory concentration and hyperpolarize Staphylococcus aureus cell membrane under inhibitory concentration. Membrane potential was monitored by DiSc3(5) over time (s). Extracellular buffer contained 10 mM HEPEs buffer, 5 mM glucose and 100 mM NaCl, pH 7.1. At t=100 s, 6 μL different concentration of compound 8 and 10 mM valinomycin (Vln) were added to 594 μL MRSA Mu3 pre-incubated with 0.4 μM DiSC3(5). The fluorescence signal was further monitored for 500 s. Data represented the mean±S.D. of technical triplicates.
Typically, an overnight culture of MRSA Mu3 was sub-cultured 1:100 in fresh CAMH and regrown to exponential phase. The bacteria were harvested (3,000×g, 5 min), washed, and re-suspended in a solution with 10 mM HEPEs buffer, 5 mM glucose and 100 mM KCl or 100 mM NaCl (pH 7.2). The bacteria were diluted to OD595 0.3 with the same buffer. […] Bacteria were incubated in darkness for 20 minutes or until fluorescence signal become stable. Fluorescence signal was recorded using Hitachi F-4500 Florescence Spectrometer. In a 1 mL cuvette, 594 μL bacteria incubated with DiSC3(5) were added and the fluorescence was monitored for 100 s. […] The fluorescence was monitored for further 500 s. […]

[2] = test system: Staphylococcus aureus Mu3; assay: Antibacterial effect in combination with calcium channel blockers; type: cell-based; settings: 12.5 μM compound 8 (4×MIC), dose dependent
Experimental: (§1) Exponential phase Staphylococcus aureus Mu3 was treated with compound 8 (4×MIC) or combination with calcium channel blocker. Data were representative of mean±S.D. of four individual experiments with error bars. Statistical analysis was performed by one-way ANOVA with Dunnett's post-test to calculate p-values adjusted for multiple comparisons with initial bacteria inoculum as control condition (*p<0.05; **p<0.01; ***p<0.001).
as §1, with “Data” for “Exponential phase Staphylococcus aureus Mu3 was treated with compound 8 (4×MIC) or combination with calcium channel blocker. Data”

[3] = test system: Staphylococcus aureus ATCC29213 Δatl, ΔSAOUHSC_02855 and ΔSAOUHSC_01895; assay: Bactericidal activity in autolysin deletion mutants; type: cell-based; settings: 4×MIC (12.5 μM), 24 hours, compared to wild type
Experimental: FIG. 15 is the bar graph showing the reduction of bactericidal effect of compound 8 in autolysin deletion mutants of Staphylococcus aureus. Staphylococcus aureus ATCC29213 WT, Staphylococcus aureus ATCC 29213, Δatl, ΔSAOUHSC_02855 and ΔSAOUHSC_01895 was incubated with 4×MIC compounds 8 for 24 hours. 10 μL bacteria were serial diluted and spotted on Mueller Hinton Agar. Colonies were enumerated next day. Data represented the mean±S.D. of biological triplicates. Statistical analysis was performed by unpaired t test compared to wild type in 95% confidence interval (*p<0.05; **p<0.01).
Target DNA upstream 1 kb and downstream 1 kb were PCR amplified from Staphylococcus aureus genomic DNA. The two DNA inserts were ligated to fuse upstream and downstream DNA fragments by overlap PCR. The ligated PCR product was cloned to pKOR1 plasmid using Vazyme ClonExpress®II One Step Cloning Kit, and transformed into Escherichia. coli top 10, plated on LBA containing ampicillin (100 μg/mL), and incubated under 30° C. overnight. Colony PCR was performed with Sanger sequencing for selection of transformants. The plasmid DNA was extracted and subsequently transformed into Staphylococcus aureus RN4220 and ATCC 29213 in TSA containing chloramphenicol (10 μg/mL). […]

Row | Structure (SMILES) | toxicity against mammalian cell MIHA (MIHA) | cell membrane potential under inhibitory concentration ([1]; inhibitory concentration) | cell membrane potential under sub-inhibitory concentration ([1]; sub-inhibitory concentration) | antibacterial effect in combination with calcium channel blocker verapamil or benidipine [2] | bactericidal activity in autolysin deficient Staphylococcus aureus [3]
1 | CC(C)C[C@H](ONC(=O)[C@@H](COCc1ccccc1)ONC(=O)c1cc(C(F)(F)F)cc(C(F)(F)F)c1)C(=O)Nc1ccccc1 [Compound 8] | minimal toxicity | hyperpolarize | depolarize | calcium channel blockers can antagonize the antibacterial effect | diminished bactericidal activity
2 | CC(C)C[C@H](ONC(=O)[C@@H](COCc1ccccc1)ONC(=O)c1cc(C(F)(F)F)cc(C(F)(F)F)c1)C(=O)Nc1ccc2c(c1)OC(F)(F)O2 [Compound 35] | minimal toxicity | – | – | – | –

Reference: patent US20240315992A1, “AMINOXY ACID-BASED ANTIBACTERIAL COMPOUNDS AND METHODS THEREOF” (The University of Hong Kong, priority 2023, published 2024)
